Reference: patent US20050008639A1, “Methods of modulating homing of T cell by interruption of chemokine/chemokine receptor signaling” (priority 2003, published 2005)
“Also recorded” adds a separate entry of the source.

Assays:
IS-CD8^+ cells = assay: PTx-treated IS-CD8+ cells cultured in vitro (viability, peptide response); type: cell-based, mouse; conditions: 24 hrs after treatment (not shown)
Description: Treatment with pertussis toxin (PTx)—For treatment with PTx, IS-CD8^+ cells were harvested, resuspended at 10^7 cells/ml in complete medium containing 100 ng/ml of PTx (Sigma) and incubated for 2 h at 37° C. The final 30 min of incubation were combined with DiI-labeling. Treated cells were washed and injected into irradiated hosts or cultured under standard conditions in vitro.

[1] = tested on: G-protein-coupled chemokine receptors; assay: Homing of PTx-treated DiI-labeled IS-CD8+ cells after injection into NOD mice; type: in vivo, mouse
Description: Fluorescent tracing and morphometric analysis—For trafficking studies, IS-CD8^+ and control T cells were incubated at 10^7 cells /ml for 30 min at 37° C. in the dark in complete medium containing 5% FCS and 0.0075 mg/ml of fluorescent dye didodecyltetramethylindocarbocyanine perchlorate (DiI) (Molecular Probes, Eugene, Oreg.), then washed 3 times with PBS. For analysis of short-term proliferation and adhesion studies IS-CD8^+ cells were stained in vitro with fluorescent dye carboxyfluorescein diacetate succinimidyl ester (CFSE) (Molecular Probes, Eugene, Oreg.) as described (12). 10^7 of labeled IS-CD8^+ cells were injected i.v. into irradiated (725 Rad, 24 h in advance) animals. Mice were sacrificed at time points indicated, and their spleens, pancreata, lymph nodes, peripheral blood and lungs were removed, lymphocytes were isolated as described (5), stained with allophycocyanin-conjugated anti-CD8 (53-6.7) antibody (BD Pharmingen), and subjected to FACS analysis. Alternatively, organs were fixed in 0.1 M periodate-lysine-paraformaldehyde phosphate buffer, sucrose-saturated, and freeze-molded in OCT compound (Sakura Finetek Inc., Torrance, Calif.). […] Cells were counted within areas relevant to a given islet (see FIG. 1 for representative image). […]

[2] = tested on: islet cells / aortal endothelial cells; assay: Chromium release cytotoxicity assay with IS-CD8+ effector cells; type: cell-based, mouse; conditions: for killing of endothelial cells isolated from NOD aorta by IS-CD8+ cells: 0.1 μM exogenous peptide
Description: Chromium release cytotoxicity assay—Pancreatic islets or monolayers of cultured aortal endothelial cells were dispersed into single-cell suspension by incubation in cell-dissociation buffer (Sigma), labeled with 100 μCi of Na2^51CrO4 (ICN Pharmaceuticals, Costa Mesa, Calif.) in 200 μl of complete Click's medium containing 5% FCS for 2 h at 37° C., washed three times, and co-cultured for 8-12 hours in 96-well plates (10^4 targets per well in 200 μl of Click's medium with 5% FCS) with effector IS CD8^+ cells at different effector-to-target ratios with different concentrations of InsB^15-23 peptide. To confirm the cytotoxic potential of IS-CD8^+ cells, labeled P815 mastocytoma (H2^d)cells were loaded with different concentrations of InsB^15-23 peptide and used as targets in the 4 hrs cytotoxicity assay. Specific cytotoxicity was based on the measurement of ^51Cr release in 100 μl aliquots of cell-free supernatant using a gamma-counter (Wallac, Turku, Finland) and calculated using the formula: Specific Cytotoxicity (%)=[(Experimental Release−Spontaneous Release)/(Maximum Release−Spontaneous Release)]×100%.

[3] = tested on: IS-CD8^+ cells adhesion to aortal endothelium from NOD mice; assay: Parallel plate flow chamber adhesion assay under shear stress; type: cell-based, mouse
Description: Primary vascular endothelium cell culture—Isolation and culture of vascular endothelium from mouse aorta was performed as described (16). Briefly, neutralized collagen extracellular matrix was aliquoted into 24-well plates, allowed to gel at 37° C. for 60 min, and equilibrated overnight with complete endothelial cell medium consisting of complete Click's medium with 20% FCS, and 50 μg/ml of Endothelial Cell Growth Supplement (Becton-Dickinson). The segments of thoracic aorta from adult NOD mice were placed endothelial-side down onto the collagen gel. Thirty-six hours later, 1 ml of complete endothelial cell medium was carefully added. After 3-5 days, the collagen gel was digested with a 0.3% collagenase H (Sigma) solution and the released cells were transferred to a T25 tissue culture flask. After reaching confluence, cells were detached by incubation with cell-dissociation buffer (Sigma), and split at a 1:3 ratio. Passage 2 to 5 cells were used for the experiments.
Parallel Plate Flow Chamber and Adhesion Assay—Aortal endothelial cells were plated on 35 mm Costar tissue culture dishes and allowed to reach confluence. The cells were then treated for 2 -3 hrs with 100 μM of InsB^15-23 or LLO^91-99 peptides in complete endothelial cell medium. In some experiments anti-K^d (SF 1-1.1) blocking mAbs were added for 20 min before the adhesion assay. The adhesion of IS-CD8^+ cells under shear stress was examined with a parallel plate flow chamber obtained from Glycotech (Rockville, Md.) following the manufacturer's instructions and as previously described (17-19). A flow chamber with a 5-mm-wide gasket was used. Negative flow pressure was generated and controlled with an automated syringe pump (Braintree Scientific, Quincy, Mass.). IS-CD8^+ cells were labeled with CFSE as described above, pretreated in some experiments with 100 ng/ml of mouse recombinant SLC (R&D Systems) in Click's medium for 30 min, and injected at a concentration of 3×10^6/ml into the flow chamber. After IS-CD8^+ cells were allowed to settle on the plate for the indicated length of time, the flow rate was increased stepwise every 10 s in increments of […] (˜4 dynes/cm^2 shear stress) to a maximum of 7.7 ml/min (corresponding to ˜24 dynes/cm^2). Lymphocyte adhesion was visualized with a Leica inverted fluorescent microscope and recorded using a Spot-RT digital camera (Diagnostic Instruments, Sterling Heights, Mich.). Images were converted into digital movies and analyzed using Metamorph software (Universal Imaging Corp., Downingtown, Pa.). Labeled IS-CD8^+ cells were counted in frames separated by equal time intervals from the start of the stress. Adhesion of cells in each frame was determined as a fraction (%) of the initial number of cells in the frame preceding the start of flow.

## pertussis toxin [PTx]
IS-CD8^+ cells
  response of PTx-treated IS-CD8+ cells to InsB15-23 peptide stimulation: responded normally
  viability of IS-CD8+ cells treated with PTx: did not lose their viability
[1]; NOD mice, vs untreated cells
  distribution of PTx-treated IS-CD8+ cells in the spleen: avoided T cell zones
[1]; cells treated in vitro with 100 ng/ml PTx for 2 h, injected into NOD mice, 24 hrs after injection
  homing of PTx-treated IS-CD8+ cells to the pancreatic islets: abolishes; also recorded: practically absent from the islets

## LYLVCGERG [InsB^15-23 peptide, synthetic insulin B chain peptide]
[2]
  killing of endothelial cells isolated from NOD aorta by IS-CD8+ cells: killed
[2]; peptide added exogenously, 50:1 effector-to-target ratio
  lysis of islet β cells from H2k/d (C3D2) mice by IS-CD8+ cells: restored
[3]; monolayers pre-cultivated with 100 μM peptide, no SLC, FIG. 7A
  adhesion of the T cells to endothelial monolayers: increased adhesion
[3]; peptide-treated monolayers, no SLC
  contact time with endothelial cells prior to start of flow needed for adhesion significantly different from no-peptide control: 300 s

## LLO^91-99 peptide: control K^d-binding listeriolysin-derived peptide (GYKDGNEYI; UniProt P13128 91-99, looked up, fragment)
[2]
  killing of endothelial cells isolated from NOD aorta by IS-CD8+ cells: no effect

B1: SLC: mouse recombinant SLC (R&D Systems), chemokine CCL21 (protein, UniProt P84444 24-133, looked up)
C-C motif chemokine 21a: SDGGGQDCCLKYSQKKIPYSIVRGYRKQEPSLGCPIPAILFSPRKHSKPELCANPEEGWVQNLMRRLDQPPAPGKQSPGCRKNRGTSKSGKKGKGSKGCKRTEQTQPSRG
[3]; T cells pre-treated with 100 ng/ml SLC, endothelium with InsB15-23 peptide
  time necessary for adhesion: 90 s
[3]; T cells pre-treated with SLC
  baseline adhesion in the absence of specific peptide: increased
[3]; T cells pre-treated with SLC vs not exposed to SLC
  fraction of adherent cells: larger
